A compilation of properties of binary mixtures (doi:10.1016/j.molliq.2016.07.039)

Experiment: xn = mol fraction of the nth substance listed
Settings: 101 kPa

CC(=O)CCC(=O)O + CCCC[N+](CCCC)(CCCC)CCCC.[Cl-]
x1 = 0.75
Settings	electrical conductivity [S/m]	viscosity [mPa·s]
293.15 K	0.035	121.7
298.15 K	0.045	–
303.15 K	0.06	65.6
308.15 K	0.072	–
313.15 K	0.089	36.7
318.15 K	0.113	–
323.15 K	0.129	25.5
328.15 K	0.151	–
338.15 K	0.213	–

CC[N+](CC)(CC)CC.[Cl-] + CC(=O)CCC(=O)O
x1 = 0.25
Settings	electrical conductivity [S/m]	viscosity [mPa·s]
293.15 K	0.075	130.1
298.15 K	0.105	–
303.15 K	0.138	69.8
308.15 K	0.172	–
313.15 K	0.215	39.1
318.15 K	0.265	–
323.15 K	0.318	27.1
328.15 K	0.373	–
333.15 K	0.453	18.71
338.15 K	0.524	–
343.15 K	0.587	–
